Tests used:
[1] = system: syngeneic pancreatic tumors established with orthotopic injection of KPC1361 cells; assay: Orthotopic KPC1361 pancreatic tumor model with anti-PD-1; assay type: in vivo, mice; conditions: apilimod 60 mg/kg, ESK981 30 mg/kg oral gavage
Description: FIG. 8B is a line graph of the efficacy of α-PD1 in combination with apilimod or ESK981 against pancreatic tumors from orthotopically injected KPC1361 cells to mice.
FIG. 8C (Left) is a line graph of flow cytometry measuring surface expression of MHC-I on GPF-labelled cancer cells in pancreatic tumors treated with α-PD1 in combination with apilimod or ESK981; (Right) is a bar graph of quantification of flow cytometry measuring surface expression of MHC-I on GPF-labelled cancer cells in pancreatic tumors treated with α-PD1 in combination with apilimod or ESK981.
FIG. 8D (left) is a series of 3 images of flow cytometry measuring the amount of total CD8^+ T cells, and proportion of activated or proliferative CD8^+ T cells in pancreatic tumors treated with α-PD1 in combination with apilimod or ESK981; (Right) are bar graphs of flow cytometry quantification of the amount of total CD8^+ T cells, and proportion of activated or proliferative CD8^+ T cells in pancreatic tumors treated with α-PD1 in combination with apilimod or ESK981.
FIG. 9A is a line graph of the survival of pancreatic tumor bearing mice, orthotopically injected with KPC1361 cells and treated with an immune checkpoint inhibitor, apilimod, or ESK981 individually, or in combination with each other.
All experimental protocols were conducted after approval by the U-M Institutional Animal Care & Use Committee. […] KPC1361 cells were resuspended in PBS, 1:1 (v/v) mixed with Matrigel (BD Biosciences; catalog #: 354248), and orthotopically injected to the pancreases at 250,000 cells in a total volume of 50 μl per injection. B16-F10 cells were resuspended in PBS and injected subcutaneously to both flanks at 400,000 cells per injection. For ACT study, B16-F10-OVA cells were resuspended in PBS and injected subcutaneously to both flanks at 300,000 cells per injection. For lung metastasis experiment, B16-BL6 cells were resuspended in PBS, 1:1 (v/v) mixed with Matrigel and injected subcutaneously to both flanks at 400,000 cells per injection. Fifteen days after tumor cell inoculation, the primary tumors were removed surgically under anesthesia. Thirty-five days after removal of the primary tumors, lung tissues were extracted and fixed, and lung metastasis was quantified. C57BL/6 mice were acquired from The Jackson Laboratory. Measurement of tumor volume began 5-9 days post tumor cell implantation and was performed 2-3 times per week using calipers. Volume measurements of pancreatic tumors were also achieved with calipers, as reported See, e.g., Koikawa, K. et al., Cell 2021; 184(18):4753-4771. In brief, mice were subjected to anesthesia with 2-3% isoflurane, and the abdominal wall then became soft and loose. […] Volume (mm^3) of tumor was calculated using (W^2×L)/2, where W stood for minor tumor axis and L for the major. […]

[2] = system: subcutaneous B16F10 tumors; assay: Subcutaneous B16F10 tumor model; assay type: in vivo, mice
Method: FIG. 15D is a line graph of the subcutaneous tumor volume of B16F10 tumors in PIKfyve KO mice or WT mice treated with anti-PD1 antibody, 200 μg every 3 days, or isotype control after 15 days.
FIG. 16D is a line graph of the subcutaneous tumor volume of B16F10 tumors in mice treated with vehicle or apilimod, 30 mg/kg daily, in wild-type or Batf3^−/− mice.
FIG. 26E is a line graph of the subcutaneous tumor volume of B16F10 tumors in mice treated with vehicle or apilimod, 30 mg/kg daily, in NSG™ mice.
FIG. 26F is a line graph of the subcutaneous tumor volume of B16F10 tumors in mice treated with vehicle versus apilimod, 30 mg/kg daily, in NSG™ mice.

[3] = reported, Ikonomov et al. 2019; cited from earlier work

Structure (SMILES)	intratumoral activated CD8+ T cells [1]	tumor-specific MHC-I surface expression [1]	efficacy in Batf3−/− mice ([2]; Batf3−/− mice)	efficacy in NSG mice ([2]; NSG mice)	B16F10 tumor growth ([2]; WT, non-transgenic mice, vs vehicle)	stability [3]
CC(C)Cn1c2ccc(Nc3ncccn3)cc2c2c3c(c4c(c21)CCc1nn(C)cc1-4)C(=O)NC3 [ESK981, 13-isobutyl-4-methyl-10-(pyrimidin-2-ylamino)-1,2,4,7,8,13-hexahydro-6H-indazolo[5,4-a]pyrrolo[3,4-c]carbazol-6-one]	increase	upregulation				
Cc1cccc(/C=N/Nc2cc(N3CCOCC3)nc(OCCc3ccccn3)n2)c1 [apilimod, N-[(E)-(3-methylphenyl)methylideneamino]-6-morpholin-4-yl-2-(2-pyridin-2-ylethoxy)pyrimidin-4-amine]	increase	upregulation	lost	lost	reduced	instability

Source: US20250144107A1, “USE OF A PIKFYVE INHIBITOR IN COMBINATION WITH IMMUNOTHERAPY” (The Regents of the University of Michigan, priority 2023, published 2025)
